Among the data in patent US20240216357A1 (SICHUAN HUIYU PHARMACEUTICAL CO., LTD., priority 2021, published 2024) are IC50 values, retold here.

SMILES strings stand for the structures. pIC50: −log10 of the molar value. Counter-ions that a name gives are not always drawn.

The first test has as its target LSD1 (Homo sapiens (Human), UniProt O60341). The experiment in a line: LSD1 enzyme activity detection (HTRF). It is filed as biochemical. As to conditions: HTRF, H3K4me1 substrate; read-out: Inhibition of enzymatic activity of LSD1 IC50.
For `CC(C)(O)Cn1ncc2cc(F)c(-c3c(O)cc(N4CCC(N)CC4)nc3-c3ccc(C#N)c(F)c3)cc21` [Example 28, hydrochloride], the negative-log IC50 (pIC50) was 6.36. Take `N#Cc1ccc(-c2nc(N3CCC(N)CC3)cc(O)c2-c2ccc3c(c2)OC(F)(F)O3)cc1F` [Example 30, 4-(6-(4-aminopiperidin-1-yl)-3-(2,2-difluorobenzo[d][1,3]dioxol-5-yl)-4-hydroxypyridin-2-yl)-2-fluorobenzonitrile hydrochloride]: the pIC50 is 6.67. As to `COc1ccc(-c2c(O)cc(N3CCC(N)CC3)nc2-c2ccc(C#N)c(F)c2)cc1OC` [Example 33, 4-(6-(4-aminopiperidin-1-yl)-3-(3,4-dimethoxyphenyl)-4-hydroxypyridin-2-yl)-2-fluorobenzonitrile hydrochloride], the pIC50 was 6.68.

In the case of `COc1ccc(-c2c(O)cc(NC3CCNCC3)nc2-c2ccc(C#N)c(F)c2)cc1F` [Example 40, 2-fluoro-4-(3-(3-fluoro-4-methoxyphenyl)-4-hydroxy-6-(piperidin-4-ylamino)pyridin-2-yl)benzonitrile], the pIC50 is 6.55. The same measure, in the same setting: with `COc1ccc(-c2cnc(N3CC4CCC(C3)C4N)c(C#N)c2-c2ccc(C#N)c(F)c2)cc1O` (stereo not drawn) [Example 74, 2-(8-amino-3-azabicyclo[3.2.1]octane-3-yl)-4-(4-cyano-3-fluorophenyl)-5-(3-hydroxy-4-methoxyphenyl) nicotinonitrile] the figure was 6.78; with `COc1ccc(-c2cnc(N3C4CCCC3CC(N)C4)c(C#N)c2-c2ccc(C#N)c(F)c2)cc1O` (stereo not drawn) [Example 75, 2-(3-amino-9-azabicyclo [3.3.1]nonan-9-yl)-4-(4-cyano-3-fluorophenyl)-5-(3-hydroxy-4-methoxyphenyl) nicotinonitrile], 6.30; with `COc1ccc(-c2cnc(N3C4CCC3CC(N)C4)c(C#N)c2-c2ccc(C#N)c(F)c2)cc1O` (stereo not drawn) [Example 81, 2-(3-amino-8-azabicyclo [3.2.1]octane-8-yl)-4-(4-cyano-3-fluorophenyl)-5-(3-hydroxy-4-methoxyphenyl) nicotinonitrile], 6.17.

On to `Cc1noc2cc(-c3c(OCc4ccccc4)cc(N4C5CCC4CC(N)C5)nc3-c3ccc(C#N)c(F)c3)c(F)cc12` (stereo not drawn) [Example 88, 4-(6-(3-amino-8-azabicyclo [3.2.1]octane-8-yl)-4-(benzyloxy)-3-(5-fluoro-3-methylbenzo[d]isoxazol-6-yl)pyridin-2-yl)-2-fluorobenzonitrile], for which the negative-log IC50 (pIC50) was 6.25. As for `COc1ccc(-c2cc(N3CCC(N)CC3)nc(-c3ccc(C#N)c(F)c3)c2OC)cc1F` [Example 102, 4-(6-(4-aminopiperidin-1-yl)-4-(3-fluoro-4-methoxyphenyl)-3-methoxypyridin-2-yl)-2-fluoroben zonitrile], the pIC50 is 6.15.

On to `COc1cc(-c2c(-c3ccc(C#N)c(F)c3)nc(N3CCC(N)CC3)n3ccnc23)ccc1O` [Example 141, 4-(5-(4-aminopiperidin-1-yl)-8-(4-hydroxy-3-methoxyphenyl)imidazolo[1,2-c]pyrimidin-7-yl)-2-fluorobenzonitrile formate], for which the pIC50 is 6.65. As for `COc1ccc(-c2c(C3CCC(C#N)CC3)nc(N3C4CCC3CC(N)C4)n3ccnc23)cc1F` (stereo not drawn) [Example 179, 4-(5-(3-amino-8-azadicyclo [3.2.1]octane-8-yl)-8-(3-fluoro-4-methoxyphenyl)imidazolo[1,2-c]pyrimidin-7-yl) cyclohexane-1-carbonitrile hydrochloride], the negative-log IC50 (pIC50) was 6.03. Still for that read-out and setting: with `COc1ccc(-c2c(-c3cnc(C#N)nc3)nc(N3C4CCC3CC(N)C4)n3ccnc23)cc1F` (stereo not drawn) [Example 180, 5-(5-(3-amino-8-azabicyclo [3.2.1]octane-8-yl)-8-(3-fluoro-4-methoxyphenyl)imidazolo[1,2-c]pyrimidin-7-yl) pyrimidin-2-carbonitrile] the figure was 7.11.

Turning to `COc1ccc(-c2c(-c3ccc(C#N)c(C#N)c3)nc(N3C4CCC3CC(N)C4)n3ccnc23)cc1F` (stereo not drawn) [Example 181, 4-(5-(3-amino-8-azabicyclo [3.2.1]octane-8-yl)-8-(3-fluoro-4-methoxyphenyl)imidazolo[1,2-c]pyrimidin-7-yl) phthalonitrile hydrochloride], the negative logarithm of the IC50 (pIC50) is 6.72. On the same count and under the same terms, with `COc1ccc(-c2c(-c3ccc(C#N)c(C)c3)nc(N3C4CCC3CC(N)C4)n3ccnc23)cc1F` (stereo not drawn) [Example 184, 4-(5-(3-amino-8-azabicyclo[3.2.1]octane-8-yl)-8-(3-fluoro-4-methoxyphenyl)imidazolo[1,2-c]pyrimidin-7-yl)-2-methylbenzonitrile hydrochloride] the figure was 6.96. Turning to `Cc1ccc(-c2c(-c3ccc(C#N)cc3)cc3c(N4CCCCC4)nccn23)cc1` [Example 191, 4-(1-(piperidin-1-yl)-6-(p-tolyl)pyrrolo[1,2-a]pyrazin-7-yl)benzonitrile], the pIC50 was 6.98. On the same count and under the same terms, with `Cc1ccc(-c2c(-c3ccc(C#N)cc3)cc3c(N4CCN(C)CC4)nncn23)cc1` [Example 195, 4-(1-(4-methylpiperazin-1-yl)-6-(p-tolyl)pyrrolo[1,2-d][1,2,4]triazine-7-yl)benzonitrile] the figure was 6.68. As for `Cc1ccc(-c2c(-c3ccc(C#N)cc3)cc3c(N4CCC(N)CC4)ccnn23)cc1` [Example 198, hydrochloride], the pIC50 was 6.76. On the same count and under the same terms, with `Cc1noc2cc(-c3sc(C(=O)N4C5CCC4CC(N)C5)cc3-c3ccc4cn[nH]c4c3)c(F)cc12` (stereo not drawn) [Example 205, (3-amino-8-azabicyclo [3.2.1]octane-8-yl) (5-(5-fluoro-3-methylbenzo[d]isoxazol-6-yl)-4-(1H-indazol-6-yl)thiophen-2-yl)methanone hydrochloride] the figure was 6.04; with `Cc1noc2cc(-c3sc(C(=O)N4C5CCC4CC(N)C5)cc3-c3cncnc3)c(F)cc12` (stereo not drawn) [Example 206, (3-amino-8-azabicyclo [3.2.1]octan-8-yl)(5-(5-fluoro-3-methylbenzo[d]isoxazol-6-yl)-4-(pyrimidine-5-yl)thiophen-2-yl) methanone hydrochloride], 6.36; with `Cc1noc2cc(-c3sc(C(=O)N4C5CCC4CC(N)C5)cc3-c3ccccc3)c(F)cc12` (stereo not drawn) [Example 207, (3-amino-8-azabicyclo [3.2.1]octan-8-yl)(5-(5-fluoro-3-methylbenzo[d]isoxazol-6-yl)-4-phenyithio-phene-2-yl)methanone hydrochloride], 5.90. Still for that read-out and setting: with `Cc1noc2cc(-c3sc(C(=O)N4C5CCC4CC(N)C5)cc3-c3cccnc3)c(F)cc12` (stereo not drawn) [Example 208, (3-amino-8-azabicyclo [3.2.1]octan-8-yl) (5-(5-fluoro-3-methylbenzo [d]isoxazol-6-yl)-4-(pyridin-3-yl)thiophen-2-yl) methanone hydrochloride] the figure was 6.19; with `Cc1noc2cc(-c3sc(C(=O)N4C5CCC4CC(N)C5)cc3-c3ccccn3)c(F)cc12` (stereo not drawn) [Example 210, (3-amino-8-azabicyclo [3.2.1]octan-8-yl)(5-(5-fluoro-3-methylbenzo[d]isoxazol-6-yl)-4-(pyridin-2-yl)thiophen-2-yl)methanone], 5.26; with `Cc1noc2cc(-c3sc(C(=O)N4C5CCC4CC(N)C5)cc3-c3ncccn3)c(F)cc12` (stereo not drawn) [Example 211], 6.69.

The test is the same for the next values; noted with them: read-out: Inhibition of enzymatic activity of LSD1 IC50.
With `N#Cc1ccc(-c2nc(N3CCC(N)CC3)cc(O)c2-c2ccc3[nH]nc(Cl)c3c2)cc1F` [Example 20, hydrochloride], the negative-log IC50 (pIC50) is 6.78.
